Patent US20240261294A1, “METHOD FOR TREATING IDH INHIBITOR-RESISTANT SUBJECTS” (Eli Lilly and Company, priority 2021, published 2024)
Residue numbers refer to the chain shown, from its start. Read-outs that look alike come from different tables or passages of the source.

Legend:
[1] = target: T1, IDH2 R140Q_I319M cis (Homo sapiens, UniProt P48735, I319M/R140Q); test: Inhibition of 2-HG production in IDH2 mutant U-87 MG cells; type: cell-based
T1 construct: expressed in transfected cells; host or cells: U-87 MG
T1 sequence (P48735 40-452 R140Q/I319M): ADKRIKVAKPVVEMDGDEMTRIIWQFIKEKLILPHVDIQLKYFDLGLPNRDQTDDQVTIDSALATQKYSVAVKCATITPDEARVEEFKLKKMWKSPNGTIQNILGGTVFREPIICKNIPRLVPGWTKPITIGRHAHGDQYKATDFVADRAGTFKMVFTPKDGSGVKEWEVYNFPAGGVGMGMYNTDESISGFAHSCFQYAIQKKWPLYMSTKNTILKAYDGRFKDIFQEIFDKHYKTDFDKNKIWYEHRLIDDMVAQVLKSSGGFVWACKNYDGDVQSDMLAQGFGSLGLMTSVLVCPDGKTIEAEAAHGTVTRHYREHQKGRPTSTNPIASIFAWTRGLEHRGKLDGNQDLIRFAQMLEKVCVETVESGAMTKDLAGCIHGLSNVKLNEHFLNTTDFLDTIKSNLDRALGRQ

[2] = target: T2, IDH2 R172K_G260A cis (Homo sapiens, UniProt P48735, G260A/R172K); test: as above; type: cell-based; settings: 16 hours incubation, 50K cells/well, 100 μl media/well, read-out: Relative IC50 (nM) Mean, inhibition of 2-HG production
T2 construct: expressed in transfected cells; host or cells: U-87 MG
T2 sequence (P48735 40-452 R172K/G260A): T1 sequence (P48735 40-452 R140Q/I319M) with Q101R, R133K, G221A, M280I

With C=CC(=O)N1CCN([C@@H](CC2CC2)c2ccc([C@H](C)Nc3ncc4c(n3)N(CC)C(=O)OC4)cc2)CC1 [Compound A, 7-[[(1S)-1-[4-[(1S)-2-cyclopropyl-1-(4-prop-2-enoylpiperazin-1-yl)ethyl]phenyl]ethyl]amino]-1-ethyl-4H-pyrimido[4,5-d][1,3]oxazin-2-one] the IC50 ([1]; 16 hours incubation, 50K cells/well, 100 μl media/well, read-out: Relative IC50 (nM) Mean, inhibition of 2-HG production) was 29 nM, the IC50 ([1]; 72 hours incubation, 12.5K cells/well, 150 μl media/well, read-out: IC50, inhibition of 2-HG production) was 30.4 nM and the IC50 [2] was 13 nM.
